From patent US20250134869A1, “Pyrrolo[2,3-d]pyrimidinyl, Pyrrolo[2,3-b]pyrazinyl and Pyrrolo[2,3-d]pyridinyl Acryla-mides” (Pfizer Inc, priority 2021, published 2025)
pIC50: −log10 of the molar value. Like-named read-outs stand apart in the source and are kept apart here.

Columns and labels:
[1] = Stability of JAK3 covalent inhibitors in human whole blood; conditions: 1 μM, 37° C.
Description: Stability of JAK3 Covalent Inhibitors in Rat and Human Whole Blood
Rat blood was collected from 3 male Sprague-Dawley rats (200-250 g, Charles River Laboratories) and pooled for each study. Human blood was collected from one male and one female healthy subjects at the Occupational Health & Wellness Center at Pfizer, Groton, CT and pooled for each study. Both rat and human blood was collected freshly into K2-EDTA tubes and kept on ice. An aliquot of the blood was transferred to microtubes and pre-warmed for 10 min at 37° C. using a heat block. […] An aliquot of the incubation mixture was removed at designated time points during the course of the incubation, mixed with an aliquot of acetonitrile containing an internal standard, vortexed and centrifuged. The resulting supernatants were removed and subjected to LC-MS/MS analyses to determine parent compound concentrations. Peak area ratios of the parent compound vs the internal standard were used to determine the % of parent compound remaining vs incubation time.

[2] = system: IL-15 induced P-STAT5 in human PBMC; assay: PBMC IL-15 induced P-STAT5; assay type: cell-based; conditions: read-out: PBMC IL15-pSTAT5 IC50
Procedure: PBMC IL-15 Induced P-STAT5
Frozen human PBMC (200-250 million cells/vial) was thawed at 37° C. The cells were transferred to 10 mL warm medium in a 50-mL conical tube, and centrifuged at 1,200 RPM at room temperature for 5 min. The supernatant was aspirated. […] After adding 47 ml D-PBS (37° C.) to PBMC/FBS suspension, centrifuging at 1,200 RPM at room temperature for 5 min, and aspirating the supernatant, the cells were resuspended in 20 mL warm RPMI medium. Ninety μL of cell suspension were pipetted per well in a 96-well, deep-well, V-bottom plate, and the plate was incubated at 37° C. for 30 min. […] After adding 0.8 mL staining buffer per well, the plates were centrifuged at 1,200 RPM (Beckman GS-6R or Sorvall Legend) at room temperature for 5 min, and again the supernatant was aspirated using a 8-channel or 12-channel manifold. The plate was vortexed, and 0.35 mL 90% methanol/10% H2O (−20° C.) was added per well, and the plate incubated on ice for 20 min. After again adding 0.8 mL staining buffer per well, the plates were centrifuged at 1,200 RPM (Beckman GS-6R or Sorvall Legend) at room temperature for 5 min, and again the supernatant was aspirated using a 8-channel or 12-channel manifold, and then 0.8 mL Staining buffer was added per well. After once again adding 0.8 mL staining buffer per well, the plates were centrifuged at 1,200 RPM (Beckman GS-6R or Sorvall Legend) at room temperature for 5 min, and again the supernatant was aspirated using a 8-channel or 12-channel manifold. […] Samples of 250 μL/well were transferred to a 96-well U-bottom plate, and the FACS analysis was performed gating on total lymphocytes. Samples were analyzed using a BD Calibur™ or BD FACSCanto™ flow cytometer equipped with the BD High Throughput Sampler.

[3] = system: IL-15 induced STAT5 phosphorylation in human whole blood lymphocytes; assay: HWB IL-15 induced STAT5 phosphorylation assay; assay type: cell-based; conditions: IL-15 stimulated, read-out: HWB-IL15-pSTAT5 IC50
Procedure: HWB IL-15 Induced STAT5 Phosphorylation Assay
After mixing and incubating for 45 minutes at 37° C., 5 μl D-PBS (unstimulated control) or 20× stocks of 5 μl human IL-15 (final concentration is 50 ng/ml) were added, and mixed three times. After incubating 15 minutes at 37° C., 1× Lyse/Fix Buffer (BD Phosflow 5× Lyse/Fix Buffer) was added to all wells at 1000 μl/well, then incubated for 20 minutes at 37° C. and spun 5 mins at 1200 rpm. […] Following incubating at 4° C. over night, all the samples were transferred to 96-well polypropylene U-bottom plate, and checked by flow cytometry gated on total lymphocytes.

[4] = molecular target: JAK3 enzyme (Homo sapiens (Human), UniProt P52333); assay: JAK Caliper Enzyme Assay at 4 μM or 1 mM ATP; assay type: biochemical
[5] = read-out: JAK3 (4 μM ATP) IC50, 4 μM ATP
[6] = read-out: JAK3 (1 mM ATP) IC50, 1 mM ATP
[7] = Homo sapiens, PBMC, human PBMC, IL-15 stimulated

Chain of JAK3 enzyme (P52333 whole entry, species assumed): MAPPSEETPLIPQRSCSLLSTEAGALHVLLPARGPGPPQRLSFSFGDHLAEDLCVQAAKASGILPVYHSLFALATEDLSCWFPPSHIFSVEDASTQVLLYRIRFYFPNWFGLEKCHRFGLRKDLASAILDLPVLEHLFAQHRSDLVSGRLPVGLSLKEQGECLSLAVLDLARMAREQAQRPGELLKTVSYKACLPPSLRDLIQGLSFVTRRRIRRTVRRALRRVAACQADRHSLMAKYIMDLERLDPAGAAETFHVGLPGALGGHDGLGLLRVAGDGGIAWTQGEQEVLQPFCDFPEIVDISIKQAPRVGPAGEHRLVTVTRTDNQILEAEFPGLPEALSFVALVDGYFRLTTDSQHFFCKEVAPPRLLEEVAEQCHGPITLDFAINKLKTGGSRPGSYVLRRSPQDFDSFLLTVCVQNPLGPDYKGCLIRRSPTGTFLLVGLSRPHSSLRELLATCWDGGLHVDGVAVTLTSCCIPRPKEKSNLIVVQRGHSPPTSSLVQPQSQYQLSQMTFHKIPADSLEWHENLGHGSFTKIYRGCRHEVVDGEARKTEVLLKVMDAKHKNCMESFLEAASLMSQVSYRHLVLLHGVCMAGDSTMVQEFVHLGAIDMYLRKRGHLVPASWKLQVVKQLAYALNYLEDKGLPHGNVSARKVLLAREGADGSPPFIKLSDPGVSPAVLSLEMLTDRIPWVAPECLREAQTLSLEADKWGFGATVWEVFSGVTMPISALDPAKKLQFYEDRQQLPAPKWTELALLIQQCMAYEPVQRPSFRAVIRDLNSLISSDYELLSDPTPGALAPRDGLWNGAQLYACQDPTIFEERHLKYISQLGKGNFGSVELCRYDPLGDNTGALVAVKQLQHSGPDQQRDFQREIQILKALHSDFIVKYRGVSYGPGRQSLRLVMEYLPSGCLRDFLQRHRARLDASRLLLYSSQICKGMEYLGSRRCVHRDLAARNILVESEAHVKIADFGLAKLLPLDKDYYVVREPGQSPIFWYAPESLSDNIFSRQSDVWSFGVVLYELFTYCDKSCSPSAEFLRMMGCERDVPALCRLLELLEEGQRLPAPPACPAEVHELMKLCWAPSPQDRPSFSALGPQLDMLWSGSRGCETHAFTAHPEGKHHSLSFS

SMILES | pIC50 ([3]; Lymphocyte) | pIC50 [4, 5] | pIC50 [4, 6] | also measured
C=CC(=O)N1CC(Nc2ncnc3[nH]ccc23)CCC1CO (stereo not shown) [Example 118, 1-[2-(Hydroxymethyl)-5-(7H-pyrrolo[2,3-d]pyrimidin-4-ylamino)piperidin-1-yl]prop-2-en-1-one] | – | – | – | Human blood stability t1/2 [1]: >333.5 min; pIC50 ([2]; human PBMC, IL-15 stimulated): < 5.00
C=CC(=O)N1CCC[C@@H](Nc2ccnc3[nH]cc(C#N)c23)C1 [Example 2, (R)-4-((1-acryloylpiperidin-3-yl)amino)-1H-pyrrolo[2,3-b]pyridine-3-carbonitrile] | – | – | – | pIC50 [3]: 6.66; Human blood stability t1/2: >360.0 min; pIC50 ([4]; read-out: JAK3 (4 μM ATP) IC50): 9.70; pIC50 ([4]; read-out: JAK3 (1 mM ATP) IC50): 7.72; pIC50 [2]: 7.52
C=CC(=O)N1CCC(Oc2cnc3[nH]cc(-c4cnn(C)c4)c3n2)CC1 [Example 218, 1-(4-{[7-(1-methyl-1H-pyrazol-4-yl)-5H-pyrrolo[2,3-b]pyrazin-2-yl]oxy}piperidin-1-yl)prop-2-en-1-one] | 5.21 | 9.22 | 7.09 | pIC50 [2, 7]: 6.46
C=CC(=O)N1CCC(Nc2cnc3[nH]cc(-c4cncc(C#N)c4)c3n2)CC1 [Example 206, 5-{2-[(1-acryloylpiperidin-4-yl)amino]-5H-pyrrolo[2,3-b]pyrazin-7-yl}pyridine-3-carbonitrile] | < 5.00 | 10.00 | 7.71 | –
C=CC(=O)N1CCC(Nc2cnc3[nH]cc(-c4ccc(C)nc4)c3n2)CC1 [Example 199, 1-(4-{[7-(6-methylpyridin-3-yl)-5H-pyrrolo[2,3-b]pyrazin-2-yl]amino}piperidin-1-yl)prop-2-en-1-one] | < 5.00 | 8.92 | 7.00 | –
C=CC(=O)N1CC(O)C(Nc2cnc3[nH]cc(C(=O)NC(C)C)c3n2)C1 (stereo not shown) [Example 179, 2-[(1-acryloyl-4-hydroxypyrrolidin-3-yl)amino]-N-(propan-2-yl)-5H-pyrrolo[2,3-b]pyrazine-7-carboxamide] | < 5.00 | 8.64 | 6.51 | pIC50 ([2]; human PBMC, IL-15 stimulated): < 5.00
C=CC(=O)N1CCC(Oc2cnc3[nH]cc(-c4ccnc(C)c4)c3n2)CC1 [Example 220, 1-(4-{[7-(2-methylpyridin-4-yl)-5H-pyrrolo[2,3-b]pyrazin-2-yl]oxy}piperidin-1-yl)prop-2-en-1-one] | < 5.00 | 9.10 | 7.15 | –
C=CC(=O)N1C[C@H](Nc2ncnc3[nH]ccc23)CC[C@@H]1CO (single isomer, unassigned) [Example 7] | 6.34 | – | – | Human blood stability t1/2 [1]: >333.5 min; pIC50 [2, 7]: 7.11
C=CC(=O)N1CCC(Oc2cnc3[nH]cc(C(=O)NC(C)(C)C)c3n2)CC1 [Example 338, 2-((1-Acryloylpiperidin-4-yl)oxy)-N-(tert-butyl)-5H-pyrrolo[2,3-b]pyrazine-7-carboxamide] | < 5.00 | 9.40 | 6.94 | –
C/C=C/C(=O)N1CCC[C@@H](Nc2ncnc3[nH]ccc23)C1 [Example 105, (2E)-1-[(3R)-3-(7H-pyrrolo[2,3-d]pyrimidin-4-ylamino)piperidin-1-yl]but-2-en-1-one] | – | 5.61 | < 5.00 | Human blood stability t1/2 [1]: >360.0 min
C=CC(=O)N1C[C@@H](Nc2ncnc3[nH]ccc23)CC[C@H]1CO [Example 117, 1-[(2S,5S)-2-(Hydroxymethyl)-5-(7H-pyrrolo[2,3-d]pyrimidin-4-ylamino)piperidin-1-yl]prop-2-en-1-one] | < 5.00 | – | – | pIC50 [2, 7]: < 5.00
C=CC(=O)N1CCC[C@@H](Nc2ncnc3[nH]cc(-c4ccc(C(=O)NC5CC5)c(Cl)c4)c23)C1 [Example 31, 4-(4-{[(3R)-1-acryloylpiperidin-3-yl]amino}-7H-pyrrolo[2,3-d]pyrimidin-5-yl)-2-chloro-N-cyclopropylbenzamide] | – | – | – | Human blood stability t1/2: >360.0 min; pIC50 ([4]; read-out: JAK3 (4 μM ATP) IC50): 7.62; pIC50 ([4]; read-out: JAK3 (1 mM ATP) IC50): 5.73
C=CC(=O)N1C[C@@H]2C(Nc3cnc4[nH]cc(C(=O)NC(C)C)c4n3)[C@@H]2C1 (stereo partly drawn) [Example 189, 2-{[(1R,5S,6s)-3-acryloyl-3-azabicyclo[3.1.0]hex-6-yl]amino}-N-(propan-2-yl)-5H-pyrrolo[2,3-b]pyrazine-7-carboxamide] | < 5.00 | 8.96 | 6.70 | –
C=CC(=O)N1CCC(Nc2cnc3[nH]cc(C(=O)N[C@@H]4C[C@H]4C(F)(F)F)c3n2)CC1 [Example 233, 2-[(1-acryloylpiperidin-4-yl)amino]-N-[(1R,2R)-2-(trifluoromethyl)cyclopropyl]-5H-pyrrolo[2,3-b]pyrazine-7-carboxamide] | 6.27 | 9.70 | 7.69 | pIC50 ([2]; human PBMC, IL-15 stimulated): 6.67
C=CC(=O)N1C[C@H](Nc2ncnc3[nH]ccc23)CC[C@@H]1CO [Example 161, 1-[(2R,5R)-2-(Hydroxymethyl)-5-(7H-pyrrolo[2,3-d]pyrimidin-4-ylamino)piperidin-1-y]prop-2-en-1-one] | – | – | – | pIC50 [3]: 6.34; Human blood stability t1/2 [1]: >323.5 min; pIC50 ([2]; human PBMC, IL-15 stimulated): 7.11
C=CC(=O)N1CC2CCN(c3cnc4[nH]cc(C(=O)NC(C)C)c4n3)C2C1 (stereo not shown) [Example 178, 2-(5-acryloylhexahydropyrrolo[3,4-b]pyrrol-1(2H)-yl)-N-(propan-2-yl)-5H-pyrrolo[2,3-b]pyrazine-7-carboxamide] | 5.59 | 8.96 | 6.99 | pIC50 [2, 7]: 6.68
C=CC(=O)N1CCC(Oc2cnc3[nH]cc(-c4cncc(F)c4)c3n2)CC1 [Example 213, 1-(4-{[7-(5-fluoropyridin-3-yl)-5H-pyrrolo[2,3-b]pyrazin-2-yl]oxy}piperidin-1-yl)prop-2-en-1-one] | < 5.00 | 9.10 | 7.16 | –
C=CC(=O)N[C@H]1C[C@@H](Nc2cnc3[nH]cc(C(=O)NC(C)C)c3n2)C1 [Example 184, 2-{[cis-3-(acryloylamino)cyclobutyl]amino}-N-(propan-2-yl)-5H-pyrrolo[2,3-b]pyrazine-7-carboxamide] | < 5.00 | 8.82 | 6.68 | –
C=CC(=O)N1CCC(Oc2cnc3[nH]cc(-c4cccnc4F)c3n2)CC1 [Example 217, 1-(4-{[7-(2-fluoropyridin-3-yl)-5H-pyrrolo[2,3-b]pyrazin-2-yl]oxy}piperidin-1-yl)prop-2-en-1-one] | < 5.00 | 9.15 | 7.37 | –
